Data as given in PubChem BioAssay AID1845215 (Molecular Pharmacology Branch, DTP, NCI, 2023).
“And” between values parts separate entries of the source, which are not always exact repeats. Equal values may be shown once.

Tested on: SW 1271 complex tumor spheroid viability
Experiment: Anticancer human tumor SW 1271 cell line growth inhibition;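 note: spheroids exposed to agents for seven days before readout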;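 for viability, T/C: percent of DMSO vehicle control luminescence so 100% = vehicle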
Conditions: for viability, T/C: stronger effect = lower value
In short: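 Complex tumor spheroids combined malignant cells with endothelial cells and mesenchymal stem cells. DNA-damaging drugs and DNA repair inhibitors were tested alone and in combination, at half-log dilutions down from clinical Cmax (top 10 microM if Cmax unknown), 0.25% DMSO final.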

[1] = curve of first compound, second compound 30 pM
[2] = curve of first compound, second compound 94.9 pM
[3] = curve of first compound, second compound 0.0003 µM
[4] = curve of first compound, second compound 0.000949 µM
[5] = curve of first compound, second compound 0.003 µM
[6] = second compound 30 pM, first compound 0.0949 µM
[7] = second compound 30 pM, first compound 0.3 µM
[8] = second compound 30 pM, first compound 0.949 µM
[9] = second compound 30 pM, first compound 3 µM
[10] = second compound 94.9 pM, first compound 0.0949 µM
[11] = second compound 94.9 pM, first compound 0.3 µM
[12] = second compound 94.9 pM, first compound 0.949 µM
[13] = second compound 94.9 pM, first compound 3 µM
[14] = second compound 0.0003 µM, first compound 0.0949 µM
[15] = second compound 0.0003 µM, first compound 0.3 µM
[16] = second compound 0.0003 µM, first compound 0.949 µM
[17] = second compound 0.0003 µM, first compound 3 µM
[18] = second compound 0.000949 µM, first compound 0.0949 µM
[19] = second compound 0.000949 µM, first compound 0.3 µM
[20] = second compound 0.000949 µM, first compound 0.949 µM
[21] = second compound 0.000949 µM, first compound 3 µM
[22] = second compound 0.003 µM, first compound 0.0949 µM
[23] = second compound 0.003 µM, first compound 0.3 µM
[24] = second compound 0.003 µM, first compound 0.949 µM
[25] = second compound 0.003 µM, first compound 3 µM

SMILES | IC50 [1] [nM] | IC50 [2] [nM] | IC50 [3] [nM] | IC50 [4] [nM] | IC50 [5] [nM] | viability, T/C [6] [%] | viability, T/C [7] [%] | viability, T/C [8] [%] | viability, T/C [9] [%] | viability, T/C [10] [%] | viability, T/C [11] [%] | viability, T/C [12] [%] | viability, T/C [13] [%] | viability, T/C [14] [%] | viability, T/C [15] [%] | viability, T/C [16] [%] | viability, T/C [17] [%] | viability, T/C [18] [%] | viability, T/C [19] [%] | viability, T/C [20] [%] | also measured
O=C(c1cc(Cc2n[nH]c(=O)c3ccccc23)ccc1F)N1CCN(C(=O)C2CC2)CC1 + COc1cc2c(cc1O)CCNC21CSC2c3c(OC(C)=O)c(C)c4c(c3C(COC1=O)N1C(O)C3Cc5cc(C)c(OC)c(O)c5C(C21)N3C)OCO4 | 1360 | 206 | < 94.9 | < 94.9 | < 94.9 | 87.3 | 70.1 | 57.6 | 36.5 | 54.3 | 53.6 | 31.2 | 29.9 | 28 | 35.6 | 32.8 | 31.1 | 4.23 | 5.88 | 3.15 | viability, T/C (second compound 30 pM, first compound 9.49 µM): 25.3%; viability, T/C (second compound 30 pM, first compound 30 µM): 11.8%; viability, T/C (second compound 94.9 pM, first compound 9.49 µM): 28.6%; viability, T/C (second compound 94.9 pM, first compound 30 µM): 11.7%; viability, T/C (second compound 0.0003 µM, first compound 9.49 µM): 24.2%; viability, T/C (second compound 0.0003 µM, first compound 30 µM): 3.66%; viability, T/C [21]: 1.8%; viability, T/C (second compound 0.000949 µM, first compound 9.49 µM): 1.43%; viability, T/C (second compound 0.000949 µM, first compound 30 µM): 0.13%; viability, T/C [22]: 0.19%; viability, T/C [23]: 0.19%; viability, T/C [24]: 0.12%; viability, T/C [25]: 0.13%; viability, T/C (second compound 0.003 µM, first compound 9.49 µM): 0.15%; viability, T/C (second compound 0.003 µM, first compound 30 µM): 0.21%
Cn1ncnc1[C@H]1c2n[nH]c(=O)c3cc(F)cc(c23)N[C@@H]1c1ccc(F)cc1 | – | – | – | – | – | – | – | – | – | – | – | – | – | – | – | – | – | – | – | – | viability, T/C (compound 0.00949 µM): 39.3% and 40% and 67.2%; viability, T/C (compound 0.03 µM): 31.9% and 32.7% and 44.5%; viability, T/C (compound 0.0949 µM): 21.2% and 24.7% and 35.2%; viability, T/C (compound 0.3 µM): 24.9% and 26.4% and 34.4%; viability, T/C (compound 0.949 µM): 25.2% and 26.3% and 30.4%; viability, T/C (compound 3 µM): 21.1% and 25.1% and 26.3%; IC50 (curve of compound): < 9.49 nM and 23.5 nM
Cn1ncnc1[C@H]1c2n[nH]c(=O)c3cc(F)cc(c23)N[C@@H]1c1ccc(F)cc1 + COc1cc2c(cc1O)CCNC21CSC2c3c(OC(C)=O)c(C)c4c(c3C(COC1=O)N1C(O)C3Cc5cc(C)c(OC)c(O)c5C(C21)N3C)OCO4 | 12.5 | < 9.49 | < 9.49 | < 9.49 | < 9.49 | 30.2 | 36.5 | 32.9 | 26.3 | 32.7 | 32.9 | 34.7 | 20.4 | 27.7 | 32.8 | 27.4 | 10.2 | 2.24 | 5.88 | 2.29 | viability, T/C (second compound 30 pM, first compound 0.00949 µM): 53.8%; viability, T/C (second compound 30 pM, first compound 0.03 µM): 38.3%; viability, T/C (second compound 94.9 pM, first compound 0.00949 µM): 37.2%; viability, T/C (second compound 94.9 pM, first compound 0.03 µM): 33.5%; viability, T/C (second compound 0.0003 µM, first compound 0.00949 µM): 34.7%; viability, T/C (second compound 0.0003 µM, first compound 0.03 µM): 35%; viability, T/C (second compound 0.000949 µM, first compound 0.00949 µM): 8.93%; viability, T/C (second compound 0.000949 µM, first compound 0.03 µM): 4.22%; viability, T/C [21]: 0.31%; viability, T/C (second compound 0.003 µM, first compound 0.00949 µM): 0.1%; viability, T/C (second compound 0.003 µM, first compound 0.03 µM): 0.09%; viability, T/C [22]: 0.09%; viability, T/C [23]: 0.1%; viability, T/C [24]: 0.09%; viability, T/C [25]: 0.15%
